# Measured values reported in patent US7371207B2 (Wyeth, priority 2002, dated 2008).
# “Also recorded” adds a separate entry of the source.
# Assays:
# [1] = tested on: gene expression in the uterus; test: GeneChip microarray survey of E2 regulated gene expression, uterus; details: 20 μg/kg/day E2 s.c. six weeks; WT and ERβKO ovariectomized mice; number of genes
# Experimental: (§1) FIG. 1 depicts a pattern analysis generated by a GeneChip microarray analysis. […] Two hours following the final dose, the mice were euthanized and 13 tissues removed for RNA preparation. Two independent studies were performed, with total RNA pooled from two groups of three animals for each condition. Gene expression was quantified by GeneChip microarrays using murine U74 sub A arrays. Data were analyzed for patterns indicating either ERα or ERβ dependent regulation as shown. […] The number of genes in each tissue that matched the theoretical induction (↑) or repression (↓) patterns for ERα or ERβ are indicated.
# (§2) One week later, the animals were ovariectomized.
# GeneChip—Total RNA was prepared separately from each individual organ by using Trizol (Invitrogen) followed by subsequent repurification on Rneasy columns (Qiagen). In general, two pools of RNA were created using equal amounts of RNA from three mice. For small organs such as pituitary, an equal amount of RNA from six animals was combined.
# (§3) Target Preparation and Array Hybridization—Total RNA was used to generate biotin labeled cRNA target as described (8) which was hybridized to the murine MG_U74Av2 probe arrays (Affymetrix, Santa Clara, Calif.) for 16 h at 45° C. Eleven biotin-labeled cRNAs at defined concentration were spiked into each hybridization and used to convert average difference values to frequencies expressed as parts per million.
# The resulting data set was queried for genes whose regulation was dependent on ERα or ERβ.
# [2] = tested on: gene expression in the pituitary; test: GeneChip microarray survey of E2 regulated gene expression, pituitary; assay type: in vivo, mouse
# Source text: as §2
# [3] = tested on: gene expression in bone marrow; test: GeneChip microarray survey of E2 regulated gene expression, bone marrow; assay type: in vivo, mouse; details: 20 μg/kg/day E2 s.c. six weeks; WT and ERβKO ovariectomized mice; number of genes
# Experimental: as §1, §2
# GeneChip—Total RNA was prepared separately from each individual organ by using Trizol (Invitrogen) followed by subsequent repurification on Rneasy columns (Qiagen). In general, two pools of RNA were created using equal amounts of RNA from three mice. […]
# as §3, with “million. […]” for “million.”
# [4] = tested on: gene expression in the kidney of mice expressing ΔAF1-ERα; test: Real-time PCR of kidney gene expression in ERαERβKO or ERαKO mice expressing ΔAF1-ERα
# Experimental: Kidney gene expression values were determined by real-time PCR for each individual animal and normalized for GAPDH expression. The mean expression level in vehicle-treated WT mice was defined as 1 for each gene. *p<0.01 for comparison to vehicle treated animals.
# One week later, the animals were ovariectomized. Commencing the day after ovariectomy, each animal received a daily subcutaneous treatment with vehicle (50% DMSO, 50% phosphate buffered saline) or vehicle containing treatments for six weeks. Each group consisted of six or seven animals. Approximately 2 hours following the final treatment, the animals were euthanized with selected tissues frozen in liquid nitrogen for RNA analysis or on dry ice for histology.
# [5] = 20 μg/kg/day E2 s.c. six weeks, WT and ERβKO ovariectomized mice, number of genes
# [6] = 10 μg/kg/day E2 or 5 mg/kg/day tamoxifen, 6 weeks, FIG. 8
smiles,measurement,setting,value
"C[C@]12CC[C@@H]3c4ccc(O)cc4CC[C@H]3[C@@H]1CC[C@@H]2O [E2, 17β-estradiol]","ERα pattern regulations in uterus, number of inductions",[1],514
same,"ERα pattern regulations in uterus, number of repressions",[1],19
same,"ERα pattern regulations in pituitary, number of inductions",[2]; [5],56
same,"ERα pattern regulations in pituitary, number of repressions",[2]; [5],30
same,Kallikrein-9 expression in pituitary,"[2]; mouse, in vivo",Induced
same,"ERα pattern regulations in bone marrow, number of inductions",[3],3
same,"ERα pattern regulations in bone marrow, number of repressions",[3],3
same,"CYP7B1 expression in kidney, mice expressing ΔAF1-ERα (ERαERβKO or ERαKO)","[4]; 10 μg/kg/day E2, 6 weeks, FIG. 8",increased CYP7B1 expression
same,"BCAT1 expression in kidney, ERαERβKO mice",[4]; [6],stimulated BCAT1 expression
same,"TF expression in kidney, ERαERβKO mice (express only ΔAF1-ERα)",[4]; [6],Neither compound could induce TF expression
same,mechanism of induction of BCAT1 in kidney (ERα AF1 or AF2),"[4]; WT versus ΔAF1-ERα mice, E2 versus tamoxifen",either AF1 or AF2 mechanisms; also recorded: both AF1 and AF2 mechanisms
